Laboratory results taken from patent publication US20240269304A1, “BCL-XL INHIBITOR ANTIBODY-DRUG CONJUGATES AND METHODS OF USE THEREOF” (Novartis AG, priority 2020, published 2024).
Where two headings read alike, the source gives them in different places.

Tests used:
[1] = ADC stability study: % aggregates by SEC after incubation at 37° C. for 168 h; format: physicochemical
Method: Size Exclusion Chromatography: Size exclusion chromatography (SEC) was performed for quality control of each ADCs by measuring monomer percentage of the conjugate. The analysis was performed on analytical column Superdex 200 Increase 5/150 GL (GE Healthcare, 28990945) in isocratic conditions 100% PBS pH7.4 (Sigma Life Science, P3813, 10PAK), flow 0.45 mI/min for 12 minutes. The % aggregate fraction of the conjugate sample was quantified based on the peak area absorbance at 280 nm. Its calculation was based on the ratio between the high molecular weight eluent at 280 nm divided by the sum of peak area absorbance at the same wavelength of the high molecular weight and monomeric eluents multiplied by 100.
Characterization of the exemplary ADCs is summarized in Table 13 (coupling, LC-MS method, OAR, aggregation status, ADO stability and yield). The average OAR values were determined using the above LC-MS methods and the percentage of aggregates was measured by size exclusion chromatography (SEC) during the quality control of the ADO and after the stability study (incubation at 37° C. for 168 h).

H1650 cells = experiment: CellTiterGlo (CTG) cell viability, 3D, 120 h, H1650 (Example 8); format: cell-based, human
ALL-SIL cells = experiment: CellTiterGlo (CTG) cell viability, 72 h, ALL-SIL (Example 8); format: cell-based
Method: ALL-SIL cells were cultivated in RPMI supplemented with 20% heat inactivated fetal bovine serum, penicillin (100 IU/ml), streptomycin (100 μg/ml) and L-glutamine (2 mM). Cell lines were cultured at 37° C. in a humidified atmosphere containing 5% CO2. Cells were seeded in 96 well clear bottom plates (96 well clear-bottom, white, Corning reference 3903) and exposed to the payloads or ADCs for 72 h (serially diluted; 9 concentrations each, triplicates). Effects of payloads or ADCs on cell viability were assessed after 3 days of incubation at 37° C./5% CO2 by quantification of cellular ATP levels using CellTiterGlo at 75 μL reagent/well. All the conditions were tested in triplicates. Luminescence was quantified on a multipurpose plate reader. IC50s were calculated using standard four-parametric curve fitting. […] Each experiment was performed at least twice, with results being reproducible.

DND-41 cells = experiment: CellTiterGlo (CTG) cell viability, 72 h, DND-41 (Example 8); format: cell-based
Method: DND-41 cells were cultivated in RPMI supplemented with 10% heat inactivated fetal bovine serum, penicillin (100 IU/ml), streptomycin (100 μg/ml) and L-glutamine (2 mM). Cell lines were cultured at 37° C. in a humidified atmosphere containing 5% CO2. […] Effects of payloads or ADCs on cell viability were assessed after 3 days of incubation at 37° C./5% CO2 by quantification of cellular ATP levels using CellTiterGlo at 75 μL reagent/well. All the conditions were tested in triplicates. Luminescence was quantified on a multipurpose plate reader. IC50s were calculated using standard four-parametric curve fitting.

[2] = H1650 3D, experiment n1, read-out: H1650 3D CTG IC50 n1
[3] = H1650 3D, experiment n2, read-out: H1650 3D CTG IC50 n2
[4] = H1650 3D, mean of n1 and n2, read-out: H1650 3D CTG IC50 Mean of n1 and n2
[5] = experiment n1, read-out: ALLSIL CTG 72 h IC50 nM n1
[6] = experiment n2, read-out: ALLSIL CTG 72 h IC50 nM n2
[7] = mean of n1 and n2, read-out: ALLSIL CTG 72 h IC50 nM Mean of n1 and n2
[8] = DND41, experiment n1, read-out: DND41 CTG 72 h IC50 nM n1
[9] = DND41, experiment n2, read-out: DND41 CTG 72 h IC50 nM n2
[10] = DND41, mean of n1 and n2, read-out: DND41 CTG 72 h IC50 nM Mean of n1 and n2
[11] = Homo sapiens, NCI-H1650, H1650 3D, experiment n1, read-out: H1650 3D CTG IC50 n1
[12] = Homo sapiens, NCI-H1650, H1650 3D, experiment n2, read-out: H1650 3D CTG IC50 n2
[13] = Homo sapiens, NCI-H1650, H1650 3D, mean of n1 and n2, read-out: H1650 3D CTG IC50 Mean of n1 and n2

| SMILES | Stab w1 +37° C. % Agg (by SEC) [1] | IC50 (H1650 cells; [2]) | IC50 (H1650 cells; [3]) | IC50 (H1650 cells; [4]) | IC50 (ALL-SIL cells; [5]) | IC50 (ALL-SIL cells; [6]) | IC50 (ALL-SIL cells; [7]) | IC50 (DND-41 cells; [8]) | IC50 (DND-41 cells; [9]) | IC50 (DND-41 cells; [10]) | IC50 (H1650 cells; [11]) | IC50 (H1650 cells; [12]) | IC50 (H1650 cells; [13]) |
| --- | --- | --- | --- | --- | --- | --- | --- | --- | --- | --- | --- | --- | --- |
| CC[N+](C)(CC#Cc1ccc(OCCCc2sc(N3CCCc4c3nnc(Nc3nc5ccccc5s3)c4C)nc2C(=O)O)c(F)c1)Cc1ccc(NC(=O)[C@H](CCCNC(N)=O)NC(=O)[C@@H](NC(=O)CCOCCN2C(=O)CC(C)C2=O)C(C)C)cc1 (stereo partly drawn) [Ab C - L9A-P13] | 0.2% | 0.9 nM | 0.7 nM | 0.8 nM | – | – | – | – | – | – | – | – | – |
| CC(=O)CCCC[C@](C)(CC(=O)[C@@](C)(CC(=O)CCCCCC1C(=O)CC(C)C1=O)C(C)C)C(=O)Cc1ccc(CC(C)(C)CC#Cc2ccc(CCCCC3=C(C(C)=O)C=C(C4CCCc5c4ccc(CC4=Cc6ccccc6C4)c5C)C3)cc2)cc1 (stereo partly drawn) [Ab C - L9A-P28] | 15% | 0.21 nM | 0.2 nM | 0.21 nM | – | – | – | – | – | – | – | – | – |
| Cc1c(Nc2nc3ccccc3s2)nnc2c1CCCN2c1nc(C(=O)[O-])c(CCCOc2ccc(C#CC(C)N3CC[N+](C)(Cc4ccc(NC(=O)[C@H](CCCNC(N)=O)NC(=O)[C@@H](NC(=O)CCOCCN5C(=O)CC(C)C5=O)C(C)C)cc4)CC3)cc2F)s1 (stereo partly drawn) [Ab C - L9A-P8] | 7% | 0.14 nM | 0.3 nM | 0.22 nM | – | – | – | – | – | – | – | – | – |
| Cc1c(Nc2nc3ccccc3s2)nnc2c1CCCN2c1nc(C(=O)O)c(CCCOc2ccc(C#CCN(C)C(=O)OCc3ccc(NC(=O)[C@H](CCCNC(N)=O)NC(=O)[C@@H](NC(=O)CCOCCN4C(=O)CC(C)C4=O)C(C)C)cc3S(=O)(=O)O)cc2F)s1 (stereo partly drawn) [Ab C - L27C-P3] | 17% | 1.4 nM | 2.6 nM | 2 nM | – | – | – | – | – | – | – | – | – |
| C=C(C)CCCC[C@](C)(CC(=C)[C@@](C)(CC(=C)CCCCCC1C(=C)CC(C)C1=C)C(C)C)C(=C)Cc1ccc(CCC(=C)C2CCC(CCC[C@]34C[C@]5(C)C[C@](C)(C3)C[C@@](CC3C=CC(c6ccc(C7CCCc8c7ccc(CC7=Cc9ccccc9C7)c8C)cc6C(=C)C)=C3C)(C5)C4)CC2)cc1 (stereo partly drawn) [Ab C - L9C-P31] | 6% | 0.07 nM | 0.1 nM | 0.09 nM | – | – | – | – | – | – | – | – | – |
| C=C(C)CCCC[C@](C)(CC(=C)[C@@](C)(CC(=C)CCCCCC1C(=C)CC(C)C1=C)C(C)C)C(=C)Cc1ccc(CCC(=C)C(CCCCC)CCC[C@]23C[C@]4(C)C[C@](C)(C2)C[C@@](CC2C=CC(c5ccc(C(C)c6ccc(CC7=Cc8ccccc8C7)c(C)c6)cc5C(=C)C)=C2C)(C4)C3)cc1 (stereo partly drawn) [Ab C - L9C-P29] | 16% | 0.13 nM | 0.09 nM | 0.11 nM | – | – | – | – | – | – | – | – | – |
| Cc1c(Nc2nc3ccccc3s2)nnc2c1CCCN2c1nc(C(=O)O)c(CCCOc2ccc(C#CCN3CCN(C(=O)OCc4ccc(NC(=O)[C@H](CCCNC(N)=O)NC(=O)[C@@H](NC(=O)CCOCCN5C(=O)CC(C)C5=O)C(C)C)cc4)CC3)cc2F)s1 (stereo partly drawn) [Ab C - L9C-P17] | 22% | 2.85 nM | 2.51 nM | 2.68 nM | – | – | – | – | – | – | – | – | – |
| Cc1cc(N(C)c2ccc(-c3cnn(C[C@]45C[C@]6(C)C[C@](C)(C4)C[C@@](OCCN(CCCO)C(=O)OCc4ccc(NC(=O)[C@H](CCCNC(N)=O)CC(=O)[C@@H](NC(=O)CCOCCN7C(=O)CC(C)C7=O)C(C)C)cc4)(C6)C5)c3C)c(C(=O)O)n2)nnc1Nc1nc2ccccc2s1 (mixture of isomers) [Ab C - L9C-P26] | 3% | 0.12 nM | 0.11 nM | 0.12 nM | – | – | – | – | – | – | – | – | – |
| Cc1cc(N(C)c2nc(C(=O)O)c(CCCOc3ccc(C#CCN(C)C(=O)OCc4ccc(NC(=O)[C@H](C)NC(=O)[C@@H](NC(=O)CCOCCN5C(=O)CC(C)C5=O)C(C)C)cc4CC[C@@H]4O[C@H](C(=O)O)[C@@H](O)[C@H](O)[C@H]4O)cc3F)s2)nnc1Nc1nc2ccccc2s1 (stereo partly drawn) [Ab C -L106C-P7] | 29% | 1.8 nM | 1.5 nM | 1.65 nM | – | – | – | – | – | – | – | – | – |
| Cc1c(Nc2nc3ccccc3s2)nnc2c1CCCN2c1nc(C(=O)O)c(CCCOc2ccc(C#CCN3CCCC3)cc2F)s1 [P9, 2-[3-(1,3-Benzothiazol-2-ylamino)-4-methyl-6,7-dihydro-5H-pyrido[2,3-c]pyridazin-8-yl]-5-[3-[2-fluoro-4-(3-pyrrolidin-1-ylprop-1-ynyl)phenoxy]propyl]thiazole-4-carboxylic acid] | – | – | – | – | 3.31 nM | 1.1 nM | 2.21 nM | 21.8 nM | 19.3 nM | 20.6 nM | 0.7 nM | 1.4 nM | 1.05 nM |
| Cc1c(NC2Nc3ccccc3S2)nnc2c1CCCN2c1nc(C(=O)[O-])c(CCCOc2ccc(C#CC[N+]3(Cc4ccc(NC(=O)[C@H](CCCNC(N)=O)NC(=O)[C@@H](NC(=O)CCCCCN5C(=O)CC(C)C5=O)C(C)C)cc4)CCCCC3)cc2F)s1 (stereo partly drawn) [Ab C - L9A-P18] | 3% | 1.2 nM | 1.25 nM | 1.23 nM | – | – | – | – | – | – | – | – | – |
| CC[N+](CC)(CC#Cc1ccc(OCCCc2sc(N3CCCc4c3nnc(Nc3nc5ccccc5s3)c4C)nc2C(=O)[O-])c(F)c1)Cc1ccc(NC(=O)[C@H](CCCNC(N)=O)NC(=O)[C@@H](NC(=O)CCOCCN2C(=O)CC(C)C2=O)C(C)C)cc1 (stereo partly drawn) [Ab C - L9A-P14] | 7% | 1.3 nM | 0.4 nM | 0.85 nM | – | – | – | – | – | – | – | – | – |
| Cc1c(Nc2nc3ccccc3s2)nnc2c1CC(OCCN(C)C(=O)OCc1ccc(NC(=O)[C@H](CCCNC(N)=O)NC(=O)[C@@H](NC(=O)CCOCCN3C(=O)CC(C)C3=O)C(C)C)cc1)CN2c1nc(C(=O)O)c(CCCOc2ccc(C#CCN(C)C)cc2F)s1 (stereo partly drawn) [Ab C - L9C-P16] | 2.4% | 3.9 nM | 4.2 nM | 4.05 nM | – | – | – | – | – | – | – | – | – |
| Cc1c(Nc2nc3ccccc3s2)nnc2c1CCCN2c1nc(C(=O)O)c(CCCOc2ccc(C#CCN(CCN(C)C)C(=O)OCc3ccc(NC(=O)[C@H](CCCNC(N)=O)NC(=O)[C@@H](NC(=O)CCOCCN4C(=O)CC(C)C4=O)C(C)C)cc3)cc2F)s1 (stereo partly drawn) [Ab C - L9C-P12] | 4% | 0.6 nM | 0.9 nM | 0.75 nM | – | – | – | – | – | – | – | – | – |
| Cc1cc(N(C)c2nc(C(=O)[O-])c(CCCOc3ccc(C#CC(C)[N+](C)(C)Cc4ccc(NC(=O)[C@H](CCCNC(N)=O)NC(=O)[C@@H](NC(=O)CCOCCN5C(=O)CC(C)C5=O)C(C)C)cc4)cc3F)s2)nnc1Nc1nc2ccccc2s1 (stereo partly drawn) [Ab C - L9A-P11] | 2.4% | 0.5 nM | 0.5 nM | 0.5 nM | – | – | – | – | – | – | – | – | – |
| Cc1c(Nc2nc3ccccc3s2)nnc2c1CCCN2c1nc(C(=O)[O-])c(CCCOc2ccc(C#CC[N+](C)(C)Cc3ccc(NC(=O)[C@H](CCCNC(N)=O)NC(=O)[C@@H](NC(=O)CCOCCN4C(=O)CC(C)C4=O)C(C)C)cc3)cc2F)[nH]1 (stereo partly drawn) [Ab C - L9A-P1] | 6% | 0.49 nM | 0.33 nM | 0.41 nM | – | – | – | – | – | – | – | – | – |
| CCN(C)CC#Cc1ccc(OCCCc2sc(N3CCCc4c3nnc(Nc3nc5ccccc5s3)c4C)nc2C(=O)O)c(F)c1 [P13, 2-[3-(1,3-Benzothiazol-2-ylamino)-4-methyl-6,7-dihydro-5H-pyrido[2,3-c]pyridazin-8-yl]-5-[3-[4-[3-[ethyl(methyl)amino]prop-1-ynyl]-2-fluoro-phenoxy]propyl]thiazole-4-carboxylic acid] | – | – | – | – | 2.6 nM | 1.44 nM | 2.02 nM | 11.8 nM | 12.1 nM | 11.9 nM | 1.8 nM | 3 nM | 2.4 nM |
